Experimental data published in US20100310579A1, “METHOD FOR INHIBITING ANGIOGENESIS OR FOR TREATMENT OF CANCER” (Faron Ventures Oy, priority 2007, published 2010).

How the values were obtained:
Type in all cases: in vivo
EL-4 lymphoma cells = assay: EL-4 lymphoma growth in mice (tumor volume); details: wt mice, s.c. EL-4 lymphoma, treated vs control, FIG. 5b
Description: FIG. 5. Defective migration of myeloid-derived suppressor cells (MDSC), angiogenesis and growth of lymphoma in VAP-1 deficient mice (a, b). EL-4 lymphoma cells were injected subcutaneously into (a) wt and VAP-1 deficient mice and (b) control and SZE5302 treated mice, and the growth of the lymphomas (volume) was measured kinetically. VAP-1 activity in control and SZE5302 treated mice was measured using enzyme assay (c) Immunohistochemical stainings of (d) VAP-1 and (e) CD31 expression in tumor vessels in EL-4 lymphoma grown in wt and VAP-1 −/− mice. Some positive vessels are pointed out by arrows. Lymphoma cells also express low levels of CD31. Bar 50 μm. The numbers of (f) CD31 positive vessels and (g) CD11b positive cells was determined using immunohistochemistry. […]
In the melanoma model, age- and sex-matched VAP-1 deficient and wt C57/B16 mice were used (Stolen, C. M., F. Marttila-Ichihara, K. Koskinen, G. G. Yegutkin, R. Turja, P. Bono, M. Skurnik, A. Hanninen, S. Jalkanen, and M. Salmi. 2005. Immunity 22:105-115). […] Immediately thereafter, a substrate for the luciferase (D-luciferin sodium salt, Synchem, Kassel, Germany; 150 mg/kg i.p.) was injected, and 10 min later the light generated was recorded using bioluminescence imaging (IVIS 50 workstation, Xenogen). The signal intensities were quantified as the photon counts using the Living Image software (Xenogen). […]

[1] = test system: Luciferase-containing B16 melanoma cells; assay: B16 melanoma tumor growth in mice (bioluminescence imaging, tumor volume)
Description: In the melanoma model, age- and sex-matched VAP-1 deficient and wt C57/B16 mice were used (Stolen, C. M., F. Marttila-Ichihara, K. Koskinen, G. G. Yegutkin, R. Turja, P. Bono, M. Skurnik, A. Hanninen, S. Jalkanen, and M. Salmi. 2005. Immunity 22:105-115). Luciferase-containing B16 melanoma cells were purchased from Xenogen. Tumor cells (4×10^5 in 200 μl) were injected subcutaneously into the flanks of isoflurane anesthesized mice. Immediately thereafter, a substrate for the luciferase (D-luciferin sodium salt, Synchem, Kassel, Germany; 150 mg/kg i.p.) was injected, and 10 min later the light generated was recorded using bioluminescence imaging (IVIS 50 workstation, Xenogen). The signal intensities were quantified as the photon counts using the Living Image software (Xenogen). […] The growth of tumors was then followed for 10 d, and at the indicated time points, the animals were re-subjected to the bioluminescence imaging. The diameter of the tumor was also measured using an electronic caliber (Mitutoyo, Japan). The volume of the tumor was approximated using the formula: 0.5×(longest diameter)×(shortest diameter). In the lymphoma model, EL-4 cells were injected into the abdominal area (10×10^6 cells/mouse in 200 μl of RPMI1640. tumor growth was followed using the electronic caliber.
(§1) The tumor model was established as above. The animals were treated every second day with anti-VAP-1 mAb (7-106+7-88, 100 μg each/mouse) or with a negative control mAb HB151 (200 μg/mouse, ip) (Merinen, M., H. Irjala, M. Salmi, I. Jaakkola, A. Hanninen, and S. Jalkanen. 2005. e. Am. J. Pathol. 166:793-800). The antibodies were produced in serum and BSA-free medium, concentrated, and dialyzed against PBS. Another group of mice were treated with the VAP-1 inhibitor SZE 5302 (50 mg/kg, ip, daily) or with the vehicle (saline) (Koskinen, K., P. J. Vainio, D. J. Smith, M. Pihlavisto, S. Yla-Herttuala, S. Jalkanen, and M. Salmi. 2004. Blood 103:3388-3395). The growth of the tumor was then followed using bioluminescence imaging or volume measurements as described above.

[2] = test system: CD31-positive vessels in melanoma tumors; assay: CD31-positive vessels in melanoma tumors (immunohistochemistry, neoangiogenesis); details: melanoma tumors resected d10, treated vs control mice, FIG. 3
Description: as §1
At the end of the experiment, tumors were excised from the mice and processed for immunohistochemical staining. Anti-mouse CD31 mAb (MEC13.3, IHC formula, 1:300 dilution; Pharmingen) and a negative control mAb (9B5) were used for indirect immunoperoxidase stainings. The sections were counterstained with hematoxylin-eosin, and mounted in Depex. In certain cases, formalin-fixed, paraffin embedded sections were stained with HE. The CD31-positive vessels or vessels in HE-stained sections were enumerated by counting the number of vessels in the whole tumor area using a 400× magnification. […]

[3] = test system: myeloid-derived suppressor cells (MDSC) in melanoma tumors; assay: CD11b-positive myeloid-derived suppressor cells in melanoma tumors (microscopic counting); details: wt mice treated with inhibitor vs vehicle, FIG. 6
From the text: FIG. 6. VAP-1 selectively supports recruitment of pro-angiogenic myeloid-derived suppressor cells in melanoma tumors. CD11b-positive cells were quantified by microscopic counting in wt and VAP-1 deficient mice and in wt treated with vehicle or SZE5302 inhibitor. Data (mean±SEM) are from 9 mice per group, ** p<0.01.
At the end of the experiment, tumors were excised from the mice and processed for immunohistochemical staining. Anti-mouse CD31 mAb (MEC13.3, IHC formula, 1:300 dilution; Pharmingen) and a negative control mAb (9B5) were used for indirect immunoperoxidase stainings. The sections were counterstained with hematoxylin-eosin, and mounted in Depex. In certain cases, formalin-fixed, paraffin embedded sections were stained with HE. The CD31-positive vessels or vessels in HE-stained sections were enumerated by counting the number of vessels in the whole tumor area using a 400× magnification. Sections were also stained with CD11b and Gr-1 antibodies.

SMILES: CN(N)[C@H]1Cc2ccccc2[C@@H]1O [SZE5302]
- tumor growth (lymphoma volume) (EL-4 lymphoma cells): strongly inhibited tumor growth
- tumor volume (physical measurement) ([1]; day 7, wt mice, B16 melanoma, 50 mg/kg ip daily): significant reduction
- melanoma size ([1]; day 10, wt mice, B16 melanoma, 50 mg/kg ip daily): clearly smaller
- tumor growth ([1]; wt mice, s.c. B16 melanoma, 50 mg/kg ip daily vs vehicle, FIG. 2B): significant decrease in tumor growth
- number of CD31+ positive (new) vessels in the tumor [2]: significantly fewer
- number of MDSC in the melanomas [3]: strongly reduced
